From a melting point compilation (Tetko et al.; mined from patent text by program, amines drawn as free bases though some values may be those of a salt)

Compound	melting point [°C]
CCc1nc2nc3cc(Cl)ccc3nc2n1C(=O)C=C(C)C	170 to 172
CC1(C)C=Cc2c(ccc3c2C=CC(=O)C3=O)O1	189 to 193
COc1cccc(Nc2nc(N)nc3[nH]c4ccccc4c23)c1	225 to 226
O=C(NCCCc1ccncc1)N(CCC12CC3CC(CC(C3)C1)C2)CC1CCCC1	155 to 158
Fc1ccc(-c2ccc3[nH]ccc3c2)cc1	71 to 74
Cc1ccc(S(=O)(=O)Cc2ccc([N+](=O)[O-])cc2)cc1	188 to 190
O=C(O)c1c2c(nc3ccccc13)-c1cc3sc4ccccc4c3cc1CC2	190 to 193
CNC(=O)C(Cc1ccc(OC)cc1)NC(=O)C(C)(CC(C)C)c1cccc(C(F)(F)F)c1S (stereo not given)	88 to 102
CCCn1nc(-c2ccc(OC(=O)CC(C)(C)C)c(F)c2)c2cccc(Cl)c21	58 to 59
Cc1ccc([N+](=O)[O-])c2[nH]ccc(=O)c12	219 to 225
CC1CC(=O)NN=C1c1ccc(NC(=O)CCNCC(O)C(Cc2ccccc2)Oc2ccc(CCOCC3CC3)cc2)cc1 (stereo not given)	125 to 128
Fc1cccc(F)c1Cn1c(-c2c(F)cccc2F)nc2c(CCl)cccc21	143 to 144
Cc1nnc2n1-c1sc(CCC(=O)N3CCOCC3)cc1C(c1ccccc1Cl)=NC2C (stereo not given)	162 to 163
COc1ccc(C(C)C)cc1-c1cc(-c2nnnn2C2CCN(C(=O)CC(C)C)CC2)c(O)cc1O	220 to 224
CC1(C)CCC(C)(C)c2c(OCc3ccc(F)cc3)cc(C(O)c3ccc4cc(C(=O)O)ccc4c3)cc21 (stereo not given)	212
Cc1ccc(-c2c(O)nc(S)nc2O)cc1	290 to 292
Cc1cc(SC2=C(O)CC(CCc3cccnc3)(C(C)C)OC2=O)c(C(C)(C)C)cc1CO (stereo not given)	122 to 125
CN1CCN(c2ccc3cnn(C)c3n2)CC1	106 to 107
CCOC(=O)c1oc2ccc(Cl)cc2c1C	80 to 82
COc1ccc2nc(NN)nc(-c3ccccc3)c2c1	151 to 152
Cc1nc2nccc(C(C)Oc3ccc(Cl)cc3)n2n1 (stereo not given)	138
CN(C)CCOc1ccc2[nH]c(C(=O)N3CC(CCl)c4c3cc(N)c3ccccc43)cc2c1 (stereo not given)	> 250

Compound	melting point [°C]
CC(ON(C(C)(C)CO)C(C)(C)CO)c1ccccc1 (stereo not given)	79 to 81
CCn1cc(CO)c(OCc2ccc(OCc3nc(-c4ccco4)oc3C)c(OC)c2)n1	117 to 118
CCOC(=O)c1cc(SC#N)c(Br)cc1N	149 to 150
CS(=O)(=O)c1ccc(C(CC2CCCC2)C(=O)Nc2ccccn2)cc1F (stereo not given)	76 to 79
CC(C)(C)COc1c(NCCCBr)c(=O)c1=O	111 to 113
COC(=O)c1cc(O)c2cc[nH]c2c1	160 to 162
Cc1nnc2n1-c1ccc(Br)cc1C(c1ccccc1F)=NC2NC(=O)OCc1ccccc1 (stereo not given)	160 to 170
O=C(O)c1ncoc1-c1ccoc1	189 to 191
CC(C)c1nc(Sc2ccc(CCC(=O)O)cc2)c(C(=O)O)n1Cc1cc2c(cc1Cl)OCO2	198
CCc1c(C(=O)Cl)cnn1-c1ccc(Cl)cc1	105 to 107
COc1cc2c(CSCCN3CC=C(c4ccccc4)CC3)c[nH]c2cc1C(=O)O	168 to 171
COc1ccccc1SC(CC(C)C)c1c(O)cc(-c2ccccc2)oc1=O (stereo not given)	75 to 78
COc1ccc(OC(=O)CN2CCN(Cc3cc(OC)c(OC)c(OC)c3)CC2)cc1	94 to 97
COC(=O)c1cnn(C)c1S(=O)(=O)NC(=O)Nc1nc(C)cc(OC)n1	183 to 184
N=C(N)c1ccc(C(=O)N[C@@H](Cc2ccc(O)cc2)C(=O)N2CCC(OCC(=O)O)CC2)cc1	88 to 90
Clc1ccc2nc(CN3CCN(c4ccccc4)CC3)cn2c1	128 to 130
Cc1ccc([N+](=O)[O-])cc1CCl	56 to 62
Cc1oc(C=Cc2cccc(Cl)c2)nc1CC#N	119 to 120
Cc1ccc([N+](=O)[O-])cc1Nc1ncc(-c2ccc(C#N)cc2)o1	> 228
Nc1ccccc1OCCCN1CCC(OC(c2ccccc2)c2ccccc2)CC1	86 to 88
CN1CCC2=C(CCCC2)C1Cc1ccc(O)cc1 (single isomer, unassigned; (-))	119 to 120

Second part, the compound after the results:

melting point [°C]	Compound
161 to 163	O=c1oc(-c2ccc(Cl)cc2)cc(O)c1SCCc1ccccc1
126 to 128	CN(C)C(=Nc1ccccc1N1CCOCC1)N1CCOCC1
> 240	Cc1cc(Cn2cc(C3c4ccccc4C=Cc4ccccc43)c(=S)[nH]c2=O)cc(C(=O)O)c1
121 to 128	O=C(NCCO)c1cccc(-c2ccc3c(c2)N(Cc2cc(Cl)cc(Cl)c2)CC3)c1
198	COc1ccc(S(=O)(=O)C(Nc2c(Br)cc(C)cc2C(=O)O)c2cccnc2)cc1 (stereo not given)
155 to 162	COc1ccc(C(=O)Nc2cc(C)cc(C)c2)cc1N
158 to 160	O=[N+]([O-])c1cccc(-c2nc(Nc3ccccc3)cc3cccnc23)c1
98 to 100	CCCCCCCCCCCCOc1ccc(C(=O)O)c(O)c1
133 to 134	FC(F)(F)Sc1ccc(C=Cc2nc(CCl)cs2)cc1
228	C=Cn1c(=O)c(C#N)c(N2CCN(C(=O)c3cccs3)CC2)c2cccnc21
85 to 88	Brc1ccc2ccn(Cc3ccccc3)c2c1
134	N#CCc1nc2c(s1)Cc1cc(Cl)ccc1-2
197 to 198	CC(C)CCCC(C)C1CCC2C3CC=C4CC(NC(=O)CCNC(=O)CCCCCNc5ccc([N+](=O)[O-])cc5[N+](=O)[O-])CCC4(C)C3CCC12C (stereo not given)
147 to 148	C/C(=C\c1ccc(OC(C)C)cc1Oc1ncc(C(F)(F)F)cc1Cl)C(=O)NS(=O)(=O)NCCc1ccccc1
53 to 54	CN(C)CCCCCCOc1ccc(CC(=O)c2ccccc2)cc1
134 to 135	CC(c1cccnn1)C(O)(Cn1cncn1)c1ccc(F)cc1F (stereo not given)
108 to 109	CCOC(=O)C1=C(C=O)Nc2ccnc(OC(C)C)c2C1c1ccccc1C(F)(F)F (stereo not given)
119 to 121	O=C(Nc1ccnc(Cl)c1)NC1CCCC1
178 to 181	c1cnc2c(c1)-c1sccc1C2Cc1ccncc1 (stereo not given)

melting point [°C]	Compound
200 to 202	Cc1cccc(C=NN2CCN(C3c4ccccc4C=C(C#N)c4ccccc43)CC2)n1 (stereo not given)
149	CC(O)=C(C#N)CC(=O)Nc1ccc(OCCCI)cc1
182 to 184	O=C(Nc1ccc(Oc2ccnc(N3CCC(O)CC3)n2)c2ccccc12)c1cc(F)cc(N2CCCCC2)c1
186 to 187	O=C(O)Cn1cccc(NS(=O)(=O)Cc2ccccc2)c1=O
63 to 65	CC(CSSc1nc2ccccc2s1)SSc1nc2ccccc2s1 (stereo not given)
210 to 211	C[C@@H](O)CNC1=NS(=O)(=O)c2sc(Cl)cc2N1
139 to 142	COc1ccc2c(c1)CCC(C(=O)Cc1ccccc1)C2C#N (stereo not given)
267 to 269	CC(=O)N1CCN(c2ccc(Nc3nccc(-c4sc(N)nc4C)n3)cc2)CC1
198 to 200	CC(=O)OC(C)C(=O)Nc1ccc(C2=NNC(=O)CC2C)cc1 (stereo not given)
97 to 99	C=Cc1ncn(-c2c(Cl)cc(C(F)(F)F)cc2Cl)n1
150 to 153	CCC(C)(C)OC(=O)NC(C)(Cc1c[nH]c2ccccc12)C(=O)NCCc1ccc(Cl)cc1 (stereo not given)
120 to 122	COc1ccc2cc(SCCC(=O)O)n(C)c2c1
62 to 63.5	N#CC(c1ccc(F)cc1)c1ccc(F)cc1
74 to 75	CCCCCCCN(CC)CCC(O)c1ccc(NS(C)(=O)=O)cc1 (stereo not given)
179 to 180	CCn1ncc2c1ncc1c(N3CCOCC3)nc3cc(C)nn3c12
64 to 65	O=[N+]([O-])c1cccc(/C=C/c2nc(C3CCCCCCC3)cs2)c1
> 270	CC(C)(C)N1CCN(c2cc3c(cc2F)c(=O)c(C(=O)O)cn3C(C)(C)C)CC1
179	COc1ccccc1C(=O)N1CCCC(=O)c2ccc(Cl)cc2CCC1=O
202 to 204	CN(C)C=Cc1[nH]c(=O)ccc1C(=O)c1ccccc1

melting point [°C]	Compound
123 to 124	COc1cc(OC)cc(C2=N[C@H]3CCN(C)C[C@H]3c3ccccc32)c1 (relative stereo)
195 to 196	COc1ccc(C(=O)c2c(N)sc3c2CN(C(=O)OCc2ccccc2)C3)cc1OC
180 to 181	NC(=O)CCn1ccn(C2CCc3ccccc3C2)c1=S (stereo not given)
83 to 84	CCCCCCCCCCCc1ccc(CC(=O)O)cc1
148	CCCCCCCCCCCCOC(=O)c1cc([N+](=O)[O-])c(C(=O)O)cc1C(=O)O
150 to 151	CCOc1nn(-c2ccc(C(F)(F)F)cn2)cc1CCCOc1cccc(OC)c1CC(=O)O
114 to 116	O=C(C1NCCc2sccc21)N1CCCC1 (stereo not given)
165	Cc1cc2nc(C)c(CCCl)c(=O)n2o1
> 280	COc1c(C#Cc2ccc(NS(C)(=O)=O)cc2C)cc(N2CCC(=O)NC2=O)cc1C(C)(C)C
95	Cc1noc(-c2c(C)nc(C#Cc3ccccc3)n2C)n1
46 to 47	COC(=O)[C@H](O)Cc1ccccc1
113 to 115	COC[C@@H](O)[C@@H](O)[C@H](OC)[C@@H](O)C=O
131 to 132	CC(=O)N1CCc2c(cccc2NS(=O)(=O)c2ccccc2)C1
72	O=C(Oc1ccc(Cl)cc1)c1cccc(Cl)c1
106 to 108	CS(=O)(=O)ON=C(Cl)c1ccccc1
157 to 159	CON=C(C)c1ccc2c(c1)ncn2-c1cccc(-c2nccs2)c1
166	CC(C)(C)OC(=O)NCc1ccc(N2CC(C(=O)O)OC2=O)cc1 (stereo not given)
182	COc1ccc(C(=O)O)c(Oc2ccc(C(F)(F)F)cc2NS(=O)(=O)c2cc(C(F)(F)F)cc(C(F)(F)F)c2)c1
189 to 191	O=C(Nc1ccc(F)cc1F)C1c2ccccc2COc2ccc(Br)cc21 (stereo not given)
